Legend:
Experiment in all cases: relative viability (nuclei count vs DMSO), 5 days (fraction); higher = more cells survive
Omipalisib + Navitoclax = compound: COc1ncc(-c2ccc3nccc(-c4ccnnc4)c3c2)cc1NS(=O)(=O)c1ccc(F)cc1F [Omipalisib] + CC1(C)CCC(c2ccc(Cl)cc2)=C(CN2CCN(c3ccc(C(=O)NS(=O)(=O)c4ccc(N[C@H](CCN5CCOCC5)CSc5ccccc5)c(S(=O)(=O)C(F)(F)F)c4)cc3)CC2)C1 [Navitoclax] (partner 0.5 µM)
In short: (§1)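 Relative viability equals treated-well nuclei counts divided by vehicle-well nuclei counts. Counts came from 4× images of lung cancer cell lines grown in 1536-well plates for 5 days after pin-tool dosing on the day after seeding. Dosing used one drug alone or a fixed anchor-drug dose plus five library-drug doses (not always all listed) in √10 steps, and values are medians of duplicate plates.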

Omipalisib + Pemetrexed = compound: COc1ncc(-c2ccc3nccc(-c4ccnnc4)c3c2)cc1NS(=O)(=O)c1ccc(F)cc1F [Omipalisib] + Nc1nc2[nH]cc(CCc3ccc(C(=O)N[C@@H](CCC(=O)O)C(=O)O)cc3)c2c(=O)[nH]1 [Pemetrexed] (partner 0.2 µM)
In short: as §1

Omipalisib + Olaparib = compound: COc1ncc(-c2ccc3nccc(-c4ccnnc4)c3c2)cc1NS(=O)(=O)c1ccc(F)cc1F [Omipalisib] + O=C(c1cc(Cc2n[nH]c(=O)c3ccccc23)ccc1F)N1CCN(C(=O)C2CC2)CC1 [Olaparib] (partner 8 µM)
In short: as §1

Omipalisib + OSI-027 = compound: COc1ncc(-c2ccc3nccc(-c4ccnnc4)c3c2)cc1NS(=O)(=O)c1ccc(F)cc1F [Omipalisib] + COc1cccc2cc(-c3nc([C@H]4CC[C@H](C(=O)O)CC4)n4ncnc(N)c34)[nH]c12 [OSI-027] (partner 0.5 µM)
In short: as §1

Omipalisib + Luminespib = compound: COc1ncc(-c2ccc3nccc(-c4ccnnc4)c3c2)cc1NS(=O)(=O)c1ccc(F)cc1F [Omipalisib] + CCNC(=O)c1noc(-c2cc(C(C)C)c(O)cc2O)c1-c1ccc(CN2CCOCC2)cc1 [Luminespib] (partner 0.01 µM)
In short: as §1

Omipalisib + Alpelisib = compound: COc1ncc(-c2ccc3nccc(-c4ccnnc4)c3c2)cc1NS(=O)(=O)c1ccc(F)cc1F [Omipalisib] + Cc1nc(NC(=O)N2CCC[C@H]2C(N)=O)sc1-c1ccnc(C(C)(C)C(F)(F)F)c1 [Alpelisib] (partner 2 µM)
In short: as §1

Cell Line	relative viability (Omipalisib + Navitoclax; first compound 0.0003 µM)	relative viability (Omipalisib + Navitoclax; first compound 0.003 µM)	relative viability (Omipalisib + Navitoclax; first compound 0.03 µM)	relative viability (Omipalisib + Pemetrexed; first compound 0.0003 µM)	relative viability (Omipalisib + Pemetrexed; first compound 0.003 µM)	relative viability (Omipalisib + Pemetrexed; first compound 0.03 µM)	relative viability (Omipalisib + Olaparib; first compound 0.0003 µM)	relative viability (Omipalisib + Olaparib; first compound 0.003 µM)	relative viability (Omipalisib + Olaparib; first compound 0.03 µM)	relative viability (Omipalisib + OSI-027; first compound 0.0003 µM)	relative viability (Omipalisib + OSI-027; first compound 0.003 µM)	relative viability (Omipalisib + OSI-027; first compound 0.03 µM)	relative viability (Omipalisib + Luminespib; first compound 0.0003 µM)	relative viability (Omipalisib + Luminespib; first compound 0.003 µM)	relative viability (Omipalisib + Luminespib; first compound 0.03 µM)	relative viability (Omipalisib + Alpelisib; first compound 0.0003 µM)	relative viability (Omipalisib + Alpelisib; first compound 0.003 µM)	relative viability (Omipalisib + Alpelisib; first compound 0.03 µM)
A-427	0.957	0.732	0.872	0.983	0.922	0.931	0.699	0.604	0.611	0.48	0.281	0.377	0.857	0.678	0.863	1.1	0.993	1.03
HOP-62	1.1	1.19	0.81	0.286	0.354	0.302	0.264	0.548	0.486	0.93	0.56	0.576	0.961	1.05	0.883	0.911	0.926	0.666
NCI-H647	0.873	0.86	0.542	0.189	0.158	0.183	0.582	0.426	0.233	0.547	0.408	0.264	0.233	0.16	0.13	1.09	0.98	0.33
NCI-H2170	0.414	0.28	0.222	0.26	0.262	0.253	0.534	0.456	0.226	0.656	0.475	0.485	0.543	0.178	0.189	0.704	0.643	0.484
LCLC-97TM1	0.503	0.149	0.164	0.191	0.146	0.14	0.383	0.291	0.0739	0.589	0.251	0.2	0.692	0.511	0.202	0.238	0.227	0.145
NCI-H1734	0.763	0.444	0.275	0.419	0.431	0.402	0.56	0.364	0.226	0.561	0.275	0.239	0.208	0.203	0.171	0.582	0.464	0.32
H3255	0.495	0.362	0.201	0.576	0.577	0.469	0.559	0.526	0.409	0.546	0.45	0.299	0.942	0.786	0.613	0.714	0.606	0.444
HCC-15	0.667	0.54	0.462	0.23	0.213	0.209	0.681	0.643	0.542	0.628	0.357	0.413	0.331	0.383	0.206	0.922	0.73	0.789

From the supplement of paper PMC10307832
